Measured values taken from US20250282794A1 (CURADEV PHARMA LTD, priority 2022, published 2025).

These compounds were tested against recombinant full length HPK-1 enzyme (Homo sapiens (Human), UniProt Q92918) (assay: HPK-1 biochemical enzyme assay (ADP-Glo kinase inhibition)). Conditions: recombinant full length HPK-1 6.8 nM, 10 μM ATP, 12.5 μM MBP, 30 mins at 25° C.
Outline: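 Recombinant full-length human HPK-1 (6.8 nM) incubated 30 min at 25° C. with 10 μM ATP and 12.5 μM swine MBP in 40 mM Tris pH 7.4, 20 mM MgCl2, 50 μM DTT, 0.1 mg/mL BSA. ADP measured by ADP-Glo; IC50 from 10 concentrations, normalized to no-enzyme and vehicle controls.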

Chain of recombinant full length HPK-1 enzyme (Q92918 whole entry, species assumed): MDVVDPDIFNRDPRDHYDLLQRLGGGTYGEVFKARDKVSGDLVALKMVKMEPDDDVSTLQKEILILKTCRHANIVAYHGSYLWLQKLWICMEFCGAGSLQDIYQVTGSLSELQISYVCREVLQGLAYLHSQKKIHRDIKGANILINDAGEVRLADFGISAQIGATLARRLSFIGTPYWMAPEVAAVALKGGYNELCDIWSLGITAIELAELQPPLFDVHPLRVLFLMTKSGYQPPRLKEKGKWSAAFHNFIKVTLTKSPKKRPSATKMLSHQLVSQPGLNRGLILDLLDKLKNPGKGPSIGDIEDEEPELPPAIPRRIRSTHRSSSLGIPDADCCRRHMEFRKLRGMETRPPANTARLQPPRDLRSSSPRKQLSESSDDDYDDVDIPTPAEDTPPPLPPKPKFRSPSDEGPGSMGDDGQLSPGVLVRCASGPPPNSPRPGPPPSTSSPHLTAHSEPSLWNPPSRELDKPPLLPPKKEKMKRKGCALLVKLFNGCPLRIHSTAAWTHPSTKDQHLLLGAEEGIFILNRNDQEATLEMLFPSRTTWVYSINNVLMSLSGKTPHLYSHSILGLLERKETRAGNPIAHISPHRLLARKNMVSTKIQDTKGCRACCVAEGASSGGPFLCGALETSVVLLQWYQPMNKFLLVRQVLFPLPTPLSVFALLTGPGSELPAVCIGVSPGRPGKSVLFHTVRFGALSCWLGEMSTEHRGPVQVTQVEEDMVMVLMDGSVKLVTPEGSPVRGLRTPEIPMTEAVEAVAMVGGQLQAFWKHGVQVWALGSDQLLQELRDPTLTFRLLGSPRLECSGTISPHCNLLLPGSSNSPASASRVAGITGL

| SMILES | IC50 |
| --- | --- |
| Cc1c(Nc2cc[nH]c(=O)c2C(=O)Nc2ccc(NC3CCN(C)CC3)cc2)cnc2c1NCCO2 [Example 209, 4-((8-methyl-2,3-dihydro-1H-pyrido[2,3-b][1,4]oxazin-7-yl)amino)-N-(4-((1-methylpiperidin-4-yl)amino)phenyl)-2-oxo-1,2-dihydropyridine-3-carboxamide] | 10 to 100 nM |
| Cc1c(Nc2cc[nH]c(=O)c2C(=O)Nc2ccc(N3CCCC(C(C)(C)O)C3)cc2)cnc2c1NCCO2 (stereo not drawn) [Example 212, N-(4-(3-(2-hydroxypropan-2-yl)piperidin-1-yl)phenyl)-4-((8-methyl-2,3-dihydro-1H-pyrido[2,3-b][1,4]oxazin-7-yl)amino)-2-oxo-1,2-dihydropyridine-3-carboxamide] | ≤ 10 nM |
| Cc1c(Nc2cc[nH]c(=O)c2C(=O)Nc2ccc(C3CCCN(C)C3)cc2)cnc2c1NCCO2 (stereo not drawn) [Example 214, 4-((8-methyl-2,3-dihydro-1H-pyrido[2,3-b][1,4]oxazin-7-yl)amino)-N-(4-(1-methylpiperidin-3-yl)phenyl)-2-oxo-1,2-dihydropyridine-3-carboxamide] | ≤ 10 nM |
| Cc1c(Nc2cc[nH]c(=O)c2C(=O)Nc2ccc(N3CCC(C(=O)O)CC3)cc2)cnc2c1NCCO2 [Example 216, 1-(4-(4-((8-methyl-2,3-dihydro-1H-pyrido[2,3-b][1,4]oxazin-7-yl)amino)-2-oxo-1,2-dihydropyridine-3-carboxamido)phenyl)piperidine-4-carboxylic acid] | 10 to 100 nM |
| Cc1cc(NS(C)(=O)=O)ccc1NC(=O)c1c(Nc2cnc3c(c2C)NCCO3)cc[nH]c1=O [Example 217, 4-((8-methyl-2,3-dihydro-1H-pyrido[2,3-b][1,4]oxazin-7-yl)amino)-N-(2-methyl-4-(methylsulfonamido)phenyl)-2-oxo-1,2-dihydropyridine-3-carboxamide] | 100 to 1000 nM |
| Cc1c(Nc2cc[nH]c(=O)c2C(=O)Nc2ccc(N3CCN(C)[C@@H](C)C3)cc2)cnc2c1NCCO2 [Example 219, (S)-N-(4-(3,4-dimethylpiperazin-1-yl)phenyl)-4-((8-methyl-2,3-dihydro-1H-pyrido[2,3-b][1,4]oxazin-7-yl)amino)-2-oxo-1,2-dihydropyridine-3-carboxamide] | ≤ 10 nM |
| Cc1c(Nc2cc[nH]c(=O)c2C(=O)Nc2ccc(N3CCN(C)[C@H](C)C3)cc2)cnc2c1NCCO2 [Example 220, (R)-N-(4-(3,4-dimethylpiperazin-1-yl)phenyl)-4-((8-methyl-2,3-dihydro-1H-pyrido[2,3-b][1,4]oxazin-7-yl)amino)-2-oxo-1,2-dihydropyridine-3-carboxamide] | ≤ 10 nM |
| Cc1c(Nc2cc[nH]c(=O)c2C(=O)Nc2ccc3c(c2)NC(=O)CO3)cnc2c1NCCO2 [Example 221, 4-((8-methyl-2,3-dihydro-1H-pyrido[2,3-b][1,4]oxazin-7-yl)amino)-2-oxo-N-(3-oxo-3,4-dihydro-2H-benzo[b][1,4]oxazin-6-yl)-1,2-dihydropyridine-3-carboxamide] | 100 to 1000 nM |
| Cc1c(Nc2cc[nH]c(=O)c2C(=O)Nc2cccc(N3CCN(C)CC3)c2)cnc2c1NCCO2 [Example 222, 4-((8-methyl-2,3-dihydro-1H-pyrido[2,3-b][1,4]oxazin-7-yl)amino)-N-(3-(4-methylpiperazin-1-yl)phenyl)-2-oxo-1,2-dihydropyridine-3-carboxamide] | 100 to 1000 nM |
| Cc1c(Nc2cc[nH]c(=O)c2C(=O)Nc2ccc(N3CCN(CCN4CCOCC4)CC3)cc2)cnc2c1NCCO2 [Example 226, 4-((8-methyl-2,3-dihydro-1H-pyrido[2,3-b][1,4]oxazin-7-yl)amino)-N-(4-(4-(2-morpholinoethyl)piperazin-1-yl)phenyl)-2-oxo-1,2-dihydropyridine-3-carboxamide] | ≤ 10 nM |
| Cc1c(Nc2cc[nH]c(=O)c2C(=O)Nc2ccc(N3CCN(C)CC3)c(CN(C)C)c2)cnc2c1NCCO2 [Example 227, N-(3-((dimethylamino)methyl)-4-(4-methylpiperazin-1-yl)phenyl)-4-((8-methyl-2,3-dihydro-1H-pyrido[2,3-b][1,4]oxazin-7-yl)amino)-2-oxo-1,2-dihydropyridine-3-carboxamide] | ≤ 10 nM |
| Cc1c(Nc2cc[nH]c(=O)c2C(=O)Nc2ccc(C[C@H]3COC(=O)N3)cc2)cnc2c1NCCO2 [Example 228, (S)-4-((8-methyl-2,3-dihydro-1H-pyrido[2,3-b][1,4]oxazin-7-yl)amino)-2-oxo-N-(4-((2-oxooxazolidin-4-yl)methyl)phenyl)-1,2-dihydropyridine-3-carboxamide] | 10 to 100 nM |
| Cc1c(Nc2cc[nH]c(=O)c2C(=O)Nc2cnc(-n3nccn3)c(Cl)c2)cnc2c1NCCO2 [Example 229, N-(5-chloro-6-(2H-1,2,3-triazol-2-yl)pyridin-3-yl)-4-((8-methyl-2,3-dihydro-1H-pyrido[2,3-b][1,4]oxazin-7-yl)amino)-2-oxo-1,2-dihydropyridine-3-carboxamide] | 100 to 1000 nM |
| Cc1c(Nc2cc[nH]c(=O)c2C(=O)Nc2ccc(Cc3ccncc3)cc2)cnc2c1NCCO2 [Example 233, 4-((8-methyl-2,3-dihydro-1H-pyrido[2,3-b][1,4]oxazin-7-yl)amino)-2-oxo-N-(4-(pyridin-4-ylmethyl)phenyl)-1,2-dihydropyridine-3-carboxamide] | 10 to 100 nM |

More lines, now with the values ahead:

| IC50 | SMILES |
| --- | --- |
| 100 to 1000 nM | Cc1c(Nc2cc[nH]c(=O)c2C(=O)Nc2ccc(N3CCN(C)CC3)c(C(=O)N(C)C)c2)cnc2c1NCCO2 [Example 208, N-(3-(dimethylcarbamoyl)-4-(4-methylpiperazin-1-yl)phenyl)-4-((8-methyl-2,3-dihydro-1H-pyrido[2,3-b][1,4]oxazin-7-yl)amino)-2-oxo-1,2-dihydropyridine-3-carboxamide] |
| 10 to 100 nM | Cc1c(Nc2cc[nH]c(=O)c2C(=O)Nc2ccc(S(N)(=O)=O)cc2)cnc2c1NCCO2 [Example 210, 4-((8-methyl-2,3-dihydro-1H-pyrido[2,3-b][1,4]oxazin-7-yl)amino)-2-oxo-N-(4-sulfamoylphenyl)-1,2-dihydropyridine-3-carboxamide] |
| 10 to 100 nM | Cc1c(Nc2cc[nH]c(=O)c2C(=O)Nc2ccc(N3CCN(C)CC3)c(-n3cnnc3)c2)cnc2c1NCCO2 [Example 211, 4-((8-methyl-2,3-dihydro-1H-pyrido[2,3-b][1,4]oxazin-7-yl)amino)-N-(4-(4-methylpiperazin-1-yl)-3-(4H-1,2,4-triazol-4-yl)phenyl)-2-oxo-1,2-dihydropyridine-3-carboxamide] |
| 10 to 100 nM | Cc1c(Nc2cc[nH]c(=O)c2C(=O)Nc2ccc(CN3CCN(C)CC3)c(C(F)(F)F)c2)cnc2c1NCCO2 [Example 213, 4-((8-methyl-2,3-dihydro-1H-pyrido[2,3-b][1,4]oxazin-7-yl)amino)-N-(4-((4-methylpiperazin-1-yl)methyl)-3-(trifluoromethyl)phenyl)-2-oxo-1,2-dihydropyridine-3-carboxamide] |
| 100 to 1000 nM | Cc1c(Nc2cc[nH]c(=O)c2C(=O)Nc2ccc(N3CCN(C)CC3)c(C(=O)O)c2)cnc2c1NCCO2 [Example 215, 5-(4-((8-methyl-2,3-dihydro-1H-pyrido[2,3-b][1,4]oxazin-7-yl)amino)-2-oxo-1,2-dihydropyridine-3-carboxamido)-2-(4-methylpiperazin-1-yl)benzoic acid] |
| 100 to 1000 nM | CCN1C(=O)C(C)(C)c2cc(NC(=O)c3c(Nc4cnc5c(c4C)NCCO5)cc[nH]c3=O)ccc21 [Example 218, N-(1-ethyl-3,3-dimethyl-2-oxoindolin-5-yl)-4-((8-methyl-2,3-dihydro-1H-pyrido[2,3-b][1,4]oxazin-7-yl)amino)-2-oxo-1,2-dihydropyridine-3-carboxamide] |
| 10 to 100 nM | Cc1c(Nc2cc[nH]c(=O)c2C(=O)Nc2ccc(S(C)(=O)=O)cc2)cnc2c1NCCO2 [Example 223, 4-((8-methyl-2,3-dihydro-1H-pyrido[2,3-b][1,4]oxazin-7-yl)amino)-N-(4-(methylsulfonyl)phenyl)-2-oxo-1,2-dihydropyridine-3-carboxamide] |
| 10 to 100 nM | Cc1nc2cc(NC(=O)c3c(Nc4cnc5c(c4C)NCCO5)cc[nH]c3=O)ccc2[nH]1 [Example 224, N-(2-methyl-1H-benzo[d]imidazol-5-yl)-4-((8-methyl-2,3-dihydro-1H-pyrido[2,3-b][1,4]oxazin-7-yl)amino)-2-oxo-1,2-dihydropyridine-3-carboxamide] |
| ≤ 10 nM | Cc1c(Nc2cc[nH]c(=O)c2C(=O)Nc2ccc(N3CCN(CCCS(C)(=O)=O)CC3)cc2)cnc2c1NCCO2 [Example 225, 4-((8-methyl-2,3-dihydro-1H-pyrido[2,3-b][1,4]oxazin-7-yl)amino)-N-(4-(4-(3-(methylsulfonyl)propyl)piperazin-1-yl)phenyl)-2-oxo-1,2-dihydropyridine-3-carboxamide] |
| 10 to 100 nM | Cc1c(Nc2cc[nH]c(=O)c2C(=O)Nc2ccc3c(c2)OCCO3)cnc2c1NCCO2 [Example 230, N-(2,3-dihydrobenzo[b][1,4]dioxin-6-yl)-4-((8-methyl-2,3-dihydro-1H-pyrido[2,3-b][1,4]oxazin-7-yl)amino)-2-oxo-1,2-dihydropyridine-3-carboxamide] |
| 10 to 100 nM | Cc1c(Nc2cc[nH]c(=O)c2C(=O)Nc2ccc(S(=O)(=O)NC3CC3)cc2)cnc2c1NCCO2 [Example 231, N-(4-(N-cyclopropylsulfamoyl)phenyl)-4-((8-methyl-2,3-dihydro-1H-pyrido[2,3-b][1,4]oxazin-7-yl)amino)-2-oxo-1,2-dihydropyridine-3-carboxamide] |
| 10 to 100 nM | Cc1c(Nc2cc[nH]c(=O)c2C(=O)Nc2ccc(CN3CCS(=O)(=O)CC3)cc2)cnc2c1NCCO2 [Example 232, N-(4-((1,1-dioxidothiomorpholino)methyl)phenyl)-4-((8-methyl-2,3-dihydro-1H-pyrido[2,3-b][1,4]oxazin-7-yl)amino)-2-oxo-1,2-dihydropyridine-3-carboxamide] |
| 10 to 100 nM | Cc1c(Nc2cc[nH]c(=O)c2C(=O)Nc2ccc3[nH]ncc3c2)cnc2c1NCCO2 [Example 234, N-(1H-indazol-5-yl)-4-((8-methyl-2,3-dihydro-1H-pyrido[2,3-b][1,4]oxazin-7-yl)amino)-2-oxo-1,2-dihydropyridine-3-carboxamide] |
